The nature of data set [1]: Oral pharmacokinetics in mice. It counts as in vivo. Particulars: mouse, whole blood; for AUC(0-inf): 100 mg/kg oral gavage in PEG400, female Swiss-Webster mice, blood. The method, then: Oral pharmacokinetic studies were performed on Compound 8. The compound was dissolved in PEG400 and administered to female Swiss-Webster mice at a dose of 100 mg/kg by oral gavage. Mice were anesthetized and blood was removed via cardiac puncture at 5 minutes, 30 minutes, 1, 2, and 8 hours. Concentrations of the test compounds were determined using liquid-liquid extraction, appropriate internal standards and reverse phase HPLC with UV detection. Control blood samples were run to identify compound-specific peaks. Pharmacokinetic parameters were calculated using the WINNONLIN analysis software package (Pharsight). Non-compartmental and compartmental models were tested, with the results shown in Table 8 derived from the best fit equations.

The test system of a further data set is female DBA/1 mice. Description: Collagen-Induced Arthritis model. As to conditions: 50 mg/kg orally. It counts as in vivo, mouse. How it is done:
FIG. 10. Effects of Compound 8 on disease progression in the collagen-induced arthritis (CIA) model in mice. Female DBA/1 mice were injected with collagen, boosted after 3 weeks and then monitored for symptoms of arthritis. Upon disease manifestation, groups of mice were treated for 12 days as follows: (▴) Compound 8 (50 mg/kg given orally each day for 6 days per week); or (▪) vehicle (PEG400 given under the same schedule). On the indicated Day of treatment, the average clinical score (A) and the average hind paw diameter (B) was determined. * p<0.05 versus PEG400 alone group.
The anti-arthritis activities of the SK inhibitor Compound 8 were assessed in the Collagen-Induced Arthritis model. Female DBA/1 mice were injected subcutaneously in the tail with chicken immunization-grade type II collagen emulsified in complete Freund's adjuvant at 2 mg/mL. Three weeks later, the mice received a collagen booster in incomplete Freund's adjuvant and were monitored daily thereafter for arthritic symptoms. Once mice reached a threshold paw thickness and clinical score, they were randomized into the following treatment groups: Compound 8 (50 mg/kg given orally each day for 6 days per week) or vehicle (Polyethyleneglycol 400 given under the same schedule). The severity of disease in each animal was quantified by measurement of the hind paw volume with digital calipers. Each paw was scored based upon perceived inflammatory activity, in which each paw receives a score of 0-3 as follows: 0=normal; 1=mild, but definite redness and swelling of the ankle or wrist, or apparent redness and swelling limited to individual digits, regardless of the number of affected digits; 2=moderate redness and swelling of the ankle and wrist and 3=severe redness and swelling of the entire paw including digits, with an overall score ranging from 0-12. Differences among treatment groups were tested using ANOVA.
On Day 12, the mice were euthanized and their hind limbs were removed, stripped of skin and muscle, formalin-fixed, decalcified and paraffin-embedded. The limbs were then sectioned and stained with hematoxylin/eosin. Tibiotarsal joints were evaluated histologically for severity of inflammation and synovial hyperplasia.

The subject of a further data set is mice. Description: Chronic DSS-colitis model of IBD (35-day). It is filed as in vivo, mouse. How it is done: FIG. 8. Effects of Compound 8 on the […] (DAI) in the chronic DSS-colitis model. Mice received 2 cycles (7 days per cycle) of DSS (1.5% cycle 1 and 1% cycle 2), 2 cycles of normal drinking water and were randomized by DAI on Day 28 into groups of 8 mice. The mice were then treated as follows: No DSS (▪)— normal drinking water and orally dosed with PEG400 every day for 7 days (water control); DSS alone (▴)— drinking water containing 1.5% DSS and orally dosed with PEG daily for 7 days; DSS+Compound 8 (▾)-drinking water containing 1.5% DSS and orally dosed with Compound 8 (50 mg/kg) every day for 7 days; DSS+Dipentum (♦)— drinking water containing 1.5% DSS and orally dosed with Dipentum (50 mg/kg). *p<0.001 versus No DSS group.
FIG. 9. Effects of Compound 8 on S1P levels in the colons of the animals in the chronic DSS-colitis model. Colon samples from mice described in FIG. 8 were extracted and assayed for the levels of S1P by LC/MS/MS. Values represent the mean±sd for 8 samples per group; * p<0.05 versus No DSS group.
A 35-day model of IBD was used to evaluate the effectiveness of the SK inhibitor in mice that experience multiple cycles of DSS-induced inflammation. This chronic model is similar to the acute model, except that the DSS concentration in the drinking water is lower and animals receive periodic exposure to DSS (DSS on days 1-7, water on Days 8-13, DSS on day 14-21, water on Days 22-27 and then DSS until the completion of the study on Day 35). In these experiments, treatment of the mice with an SK inhibitor or Dipentum began on Day 28 and continued daily until the completion of the study. The DAI index was monitored every other day until Day 28 and then daily until Day 35. Animals were sacrificed on Day 35, and changes in the colon length and cytokine profiles were measured.
As a final measure of the effects of the SK inhibitors in this chronic model, S1P levels were assayed in the colons of the DSS-treated animals using an LC-MS/MS method. […] Ratios of analyte to internal standard for each sphingolipid were determined. […]

Where [2] appears, read: female, Swiss-Webster, 100 mg/kg oral gavage, mice.

Like-named read-outs stand apart in the source and are kept apart here.

By Cmax is commonly meant the peak of the concentration-time curve. A word on the Tmax: it is the time from dosing to the highest level. Usually half-life stands for how long it takes for the measured level to halve. A higher half-life goes with slow loss. Take `CCCC(=O)Oc1ccc(C=CC(=O)Nc2nc(-c3ccc(Cl)cc3)cs2)cc1OC` [Compound 8, Butyric acid 4-{2-[4-(4-chloro-phenyl)-thiazol-2-ylcarbamoyl]-vinyl}-2-methoxy-phenyl ester]: in data set [1] (setting [2]), the concentration peaked (Cmax) at 34.4 µM, the Tmax turned out to be 1 h and the half-life was 31.9 h. Also, the AUC(0-inf) in data set [1] (read-out: AUC0 → ∞ (μM*h)) amounted to 1500 µM·h. The AUC(0-inf) in data set [1] (read-out: AUC0 → ∞ (μg*h/mL)) was determined as 475 µg·h/mL. In the data set on female DBA/1 mice (6 days per week, Day 12), the “reduction in clinical score vs vehicle” value is recorded as 65% and the “reduction in the increase in hind paw thickness vs vehicle” value stood at 72%. Also, in the data set on female DBA/1 mice (Day 12), the “histologic damage of tibiotarsal joints” value is reported as “significantly reduced”. For the same compound, in the data set with female DBA/1 mice (significant decreases beginning at Day 4), the “inflammation response (Average Clinical Score, Average Hind Paw Diameter)” value is given as “dramatically slowed”. Besides, the colon length with mice (50 mg/kg oral daily Days 28-35, Day 35) was 5.8±0.1 cm. In addition, the “increase in DAI during third DSS exposure” value in the data set on mice (50 mg/kg oral daily Days 28-35, P<0.001 on Day 35) is “significantly suppressed”. Also, the “S1P levels in colon (LC-MS/MS)” value in the data set with mice (oral 50 mg/kg daily, 7 days prior to sacrifice) is on record as “significant reductions”.

These data come from patent US20100137315A1, “Sphingosine Kinase Inhibitors and Methods of Their Use” (APOGEE BIOTECHNOLOGY CORPORATION, priority 2005, published 2010).
